In experiment [1] the test system is Vif-mediated depletion of APOBEC3G-HA in 293T cells. The experiment is described as follows: Proteasome inhibitor panel in 293T cells transiently transfected with APOBEC3G-HA and Vif, immunoblot. The experiment is classed as cell-based. The conditions noted are these: 15 hours. The protocol:
293T cells were transfected with the indicated amounts of expression vector DNA using the calcium phosphate method. Lysis buffers used for immunoblotting were (1) 100-400 mM NaCl, 50 mM Hepes, 0.2% NP40, 0-5 mM EDTA, 0.1 mM PMSF, plus complete protease inhibitor cocktail (Roche)(1 tablet/50 ml buffer) or (2) 50 mM Hepes, pH 7.2, 135 mM NaCl, 1% Triton X-100, 0.5% deoxycholate, 10% glycerol, 1 mM EDTA, 1× protease inhibitor cocktail (Calbiochem). Samples were analyzed using standard SDS-PAGE techniques.
(§1) For the proteasome inhibitor experiments in transiently transfected cells, 293T cells were transiently transfected with 0.1 μg of APOBEC3G-HA DNA, 2 μg of control vector DNA and 2 μg of either pcDNA3.1 Vif DNA vector or an additional 2 μg of control vector DNA. Twenty-four hours after transfection, the cells were treated with the indicated inhibitor and harvested 15 hours later. For the proteasome inhibitor experiments using infected H9 cells, H9 cells were infected by spinoculation as described above. Forty-four hours after infection, the cells were treated for 16 hours with either dimethylsulfoxide (DMSO) (0.1%) or 0.25 μM epoxomicin. All of the inhibitors (ALLN, MG132, epoxomicin, Calpain Inhibitor III, and clasto-Lactacystin-β-Lactone) were purchased from CalBiochem and were dissolved in DMSO.
To confirm this finding in a different system, a similar experiment was performed using 293T cells transiently transfected with an APOBEC3G-HA expression vector and either a Vif expression vector or a control vector. Twenty-four hours after transfection the cells were treated with a panel of different proteasome inhibitors for a 15-hour period. It was observed that the broadly acting proteasome inhibitors MG132 (12.5 μM) and ALLN (25 μM) as well as the more specific proteasome inhibitor clasto-Lactacystin-β-Lactone ([…], 20 μM) enhanced the levels of APOBEC3G-HA in the presence of Vif when compared to the diluent control sample (0.1% DMSO) (FIG. 8C, lanes 7 through 12).
(§2) FIG. 8A-C. Vif shortens the half-life of APOBEC3G, and proteasome inhibitors partially block the intracellular depletion of APOBEC3G-HA. (A) Pulse-Chase Radiolabeling. HEK 293 cells transiently transfected with APOBEC3G-HA and Vif or control vector DNA were pulse-labeled for 30 min. The initial pulse-labeled (t=0) samples were harvested, and the remaining samples were incubated with chase media for the indicated time points. After immunoprecipitation with anti-HA antibody, the samples were analyzed by SDS-PAGE and the gels were subjected to autoradiography. The relative intensity of the bands were quantified and the Vif (+) and Vif (−) samples were normalized to 1 and graphed (FIG. 8, right side). The T1/2 of APOBEC3G was 1.9 hours in the presence of Vif and 10 hours in the absence of Vif. (B) Proteasome inhibitor studies using infected H9 cells. Mock or HIV-1 wt-infected H9 cells were treated with the broadly active proteasome inhibitor epoxomicin (0.25 μM) or DMSO (0.1%) 44 hours after infection. Sixteen hours following treatment, the cells were harvested; and whole cell lysates were prepared by boiling the cells in Laemmli lysis buffer. Note that Epoxomicin caused an increase in endogenous APOBEC3G levels in the infected sample (compare lane 2 with lane 1). (C) Proteasome inhibitor studies using transiently-transfected 293T cells. Twenty-four hours following transfection of 293T cells with 0.1 μg APOBEC3G and 2 μg Vif or control vector DNA, the cells were treated with the indicated concentration of inhibitor for 15 hours. APOBEC3G-HA levels were elevated in the presence of the proteasome inhibitors MG132, ALLN, and clasto-lactacystin-β-lactone (lanes 8-11), but not in the presence of calpain inhibitor III (lane 12).
A general note: In western blotting, separated proteins are transferred to a membrane and probed.

Experiment [2] concerns APOBEC3G in peripheral blood lymphocytes. The experiment is described as follows: PBLs incubated with stimulant for 48 hours, Western blot for APOBEC3G (Example 2). Format: cell-based, Human. The conditions noted are these: incubated with stimulant for 48 hours versus unstimulated. The protocol:
Human peripheral blood lymphocytes (PBLs) were isolated from blood and then incubated with anti-CD3 antibody (α-CD3), anti-CD28 antibody (α-CD28), IL-9, IL-12, IL-13, IL-15, or IFN-γ for 48 hours. Cells were lysed, the lysates clarified, and the protein concentration of the lysates was quantitated. Equal amounts of proteins in the lysates were separated by SDS-PAGE. After separation of the proteins by SDS-PAGE, the proteins were transferred to a membrane, and antibody to APOBEC3G was used to detect APOBEC3G protein on the membrane. The results are depicted in FIGS. 1-13.
FIG. 11 depicts the effect of PHA, anti-CD3 antibody, anti-CD28 antibody, and IL-15 on the level of APOBEC3G in peripheral blood lymphocytes. […] Western blot of cell lysates deriving from stimulated and unstimulated peripheral blood lymphocytes. PBLs were isolated from blood and then incubated with the indicated stimulant for 48 hours. Following separation of the proteins by SDS-PAGE, antibody to APOBEC3G was used to detect APOBEC3G protein. As a loading control, anti-β-actin was used to detect β-actin.

The test system of experiment [3] is Vif-induced degradation of APOBEC3G (26S proteasome) in H9 cells. Briefly: Proteasome inhibitor experiment in HIV-1 wt-infected or mock-infected H9 cells, immunoblot of whole cell lysates. The experiment is classed as cell-based, human. The conditions noted are these: 0.25 μM; for APOBEC3G levels in infected cells compared to DMSO-treated cells: treated 16 hours, 44 hours after infection. The protocol: as §1
To investigate whether the 26S proteasome might mediate the Vif-induced degradation of APOBEC3G, H9 cells were infected with HIV-1 wt or were mock-infected. […] Whole cell lysates were subsequently prepared by boiling the cells in Laemmli lysis buffer, followed by protein separation by SDS-PAGE and immunoblotting. As expected, APOBEC3G levels were much lower in the infected sample when compared to the uninfected sample (FIG. 8B, lanes 1 and 3).
as §2, with “APOBEC3G-HA levels were elevated in the presence of the proteasome inhibitors MG132, ALLN, and clasto-lactacystin-β-lactone (lanes 8-11), but not in the presence of calpain inhibitor III (lane 12).” left out

Entries after “also recorded” stand apart in the source; their conditions may differ. Non-standard residues stand in square brackets, D forms with d. Residues, ends and D or L forms follow the SMILES beside them. *: point of attachment. Nle = CCCC[C@H](N)C(=O)O; Cbz = O=C(OCc1ccccc1)*

Seven molecules from patent US7723021B2, “Methods for treating lentivirus infections” (The J. David Gladstone Institutes, priority 2003, dated 2010) can be followed below.

Consider `CCCC[C@@H](C=O)NC(=O)[C@H](CC(C)C)NC(=O)[C@H](CC(C)C)NC(C)=O` [ALLN] (Ac-Leu-Leu-[Nle]-aldehyde), for which the “levels of APOBEC3G-HA in the presence of Vif compared to diluent control (0.1% DMSO)” value (“levels of APOBEC3G-HA … (0.1% DMSO)” for short) in experiment [1] (25 μM) is on record as “enhanced; also recorded: elevated”.

For the molecule `CC(C)[C@H](NC(=O)OCc1ccccc1)C(=O)N[C@H](C=O)Cc1ccccc1` [Calpain Inhibitor III] (Cbz-Val-Phe-aldehyde), the “levels of APOBEC3G-HA … (0.1% DMSO)” value in experiment [1] (50 μM) is listed as “did not cause an increase”; in experiment [1] (50 μM, listed as calpain inhibitor III), “not”.

For the molecule `CCCCCCCCCCCCCC(=O)O[C@@H]1[C@@H](C)[C@@]2(O)[C@@H](C=C(CO)C[C@]3(O)C(=O)C(C)=C[C@@H]23)[C@@H]2C(C)(C)[C@]12OC(C)=O` [PMA, phorbol-12-myristate-13-acetate], the “level of APOBEC3G in peripheral blood lymphocytes” value in experiment [2] is listed as “upregulated”.

As for `CC(C)[C@H](O)[C@@]12NC(=O)[C@H](C)[C@@H]1OC2=O` [clasto-Lactacystin-β-Lactone], the “levels of APOBEC3G-HA … (0.1% DMSO)” value in experiment [1] (110 μM, 20 μM) is reported as “enhanced”; in experiment [1] (110 μM, 20 μM, listed as clasto-lactacystin-β-lactone) it was “elevated”.

Regarding `CC[C@H](C)[C@H](NC(=O)[C@H]([C@@H](C)CC)N(C)C(C)=O)C(=O)N[C@H](C(=O)N[C@@H](CC(C)C)C(=O)[C@@]1(C)CO1)[C@@H](C)O` [epoxomicin], the Vif levels entry in experiment [3] (HIV-1 wt-infected H9 cells, 16 hours) is on record as “increase”. For the same molecule, the “APOBEC3G levels in infected cells compared to DMSO-treated cells” value in experiment [3] (HIV-1 wt-infected H9 cells) is “elevated”; in experiment [3] (HIV-1 wt-infected H9 cells, listed as Epoxomicin) it was “increase”. For the same molecule, in experiment [3] (mock-infected H9 cells, 16 hours), the “level of APOBEC3G in the uninfected cultures” value is on record as “did not appear to cause a similar increase”.

For the molecule `CC(=O)O[C@@]12C[C@@H](C)[C@@]3(O)[C@@H](C=C(CO)C[C@]4(O)C(=O)C(C)=C[C@@H]34)[C@@H]1C2(C)C` [prostratin, 12-deoxyphorbol-13-acetate], the “level of APOBEC3G in peripheral blood lymphocytes” value in experiment [2] was “upregulated”.

On to IL-15: cytokine, for which, in experiment [2], the “level of APOBEC3G in peripheral blood lymphocytes” value is given as “increased expression”.
